# Laboratory results reported in ChEMBL document CHEMBL5537147, “Development of membrane-targeting TPP+-chloramphenicol conjugates to combat methicillin-resistant staphylococcus aureus (MRSA) infections” (Eur J Med Chem, 2024).
# Active and inactive are the calls of the source. No cut-off for these calls is given here.
# Key:
# Staphylococcus aureus [1] = experiment: Antibacterial activity against methicillin-resistant Staphylococcus aureus 3390 assessed as inhibition of bacterial growth incubated for 16 to 18 hrs by CLSI based two-fold serial dilution method; assay type: functional; conditions: time 16-18 hrs
# Staphylococcus aureus [2] = experiment: Bactericidal against methicillin-resistant Staphylococcus aureus USA300 assessed as reduction in bacterial colonies at 32 ug/ml measured upto 7 hrs by time kill assay; assay type: functional, organism-based; conditions: dose 32.0 µg/ml
# Pseudomonas aeruginosa [3] = experiment: Antibacterial activity against Pseudomonas aeruginosa 535 assessed as inhibition of bacterial growth incubated for 16 to 18 hrs by CLSI based two-fold serial dilution method; assay type: functional; conditions: time 16-18 hrs
# Erythrocyte = experiment: Hemolytic activity in sheep RBC at 30 ug/ml incubated for 1 hr by absorbance based analysis; assay type: toxicity, cell-based, Ovis aries; conditions: dose 30 µg/ml
# Staphylococcus aureus [4] = experiment: Antibacterial activity against methicillin-resistant Staphylococcus aureus USA300 infected in ICR mouse assessed as reduction in bacterial load in infected thigh at 10 mg/kg, sc pre-infected with bacteria for 2 hrs followed by compound administration as dual dose and measured after 3 days; assay type: functional, organism-based; conditions: time 3.0 day
# Cell membrane [5] = experiment: Induction of cell membrane damage in methicillin-resistant Staphylococcus aureus USA300 assessed as disruption of cell membrane at 16 ug/ml measured after 0.5 hrs by SEM analysis; assay type: cell membranes; conditions: dose 16.0 µg/ml
# HEK-293T = experiment: Cytotoxicity against HEK293T cells assessed as effect on cell viability at 35 ug/ml incubated for 24 hrs by MTT assay; assay type: toxicity, cell-based; conditions: human, dose 35 µg/ml
# Cell membrane [6] = experiment: Disruption of cell membrane integrity in methicillin-resistant Staphylococcus aureus USA300 assessed as increase in fluorescence intensity measured after 0 to 30 mins by SYTOX Green staining based analysis; assay type: cell membranes; conditions: dose 2-16 µg/ml, time 0-30 min
# Acinetobacter baumannii [7] = experiment: Antibacterial activity against Acinetobacter baumannii 1310 assessed as inhibition of bacterial growth incubated for 16 to 18 hrs by CLSI based two-fold serial dilution method; assay type: functional; conditions: time 16-18 hrs
# Staphylococcus aureus [8] = experiment: Antibacterial activity against methicillin-resistant Staphylococcus aureus 330041 assessed as inhibition of bacterial growth incubated for 16 to 18 hrs by CLSI based two-fold serial dilution method; assay type: functional; conditions: time 16-18 hrs
# [9] = Toxicity in ICR mouse infected with methicillin-resistant Staphylococcus aureus USA300 assessed as reduction in body weight at 10 mg/kg, sc administered as dual dose and measured after 3 days; assay type: organism-based; conditions: in vivo, 72 h, time 3 day
# Pseudomonas aeruginosa [10] = experiment: Antibacterial activity against Pseudomonas aeruginosa 408 assessed as inhibition of bacterial growth incubated for 16 to 18 hrs by CLSI based two-fold serial dilution method; assay type: functional; conditions: time 16-18 hrs
# Staphylococcus aureus [11] = experiment: Bactericidal against methicillin-resistant Staphylococcus aureus USA300 assessed as total eradication of bacterial colonies at 1 to 2 times MIC measured upto 7 hrs by time kill assay; assay type: functional, organism-based
# Staphylococcus aureus [12] = experiment: Resistance development in methicillin-resistant Staphylococcus aureus USA300 assessed as increase in MIC measured after 15 passages; assay type: functional, organism-based
# Cell membrane [13] = experiment: Induction of cell membrane damage in methicillin-resistant Staphylococcus aureus USA300 assessed as appearance of wrinkles in cell surface at 16 ug/ml measured after 0.5 hrs by SEM analysis; assay type: cell membranes; conditions: dose 16.0 µg/ml
# Staphylococcus aureus [14] = experiment: Antibacterial activity against methicillin-resistant Staphylococcus aureus 3392 assessed as inhibition of bacterial growth incubated for 16 to 18 hrs by CLSI based two-fold serial dilution method; assay type: functional; conditions: time 16-18 hrs
# Acinetobacter baumannii [15] = experiment: Antibacterial activity against Acinetobacter baumannii 1309 assessed as inhibition of bacterial growth incubated for 16 to 18 hrs by CLSI based two-fold serial dilution method; assay type: functional; conditions: time 16-18 hrs
# Staphylococcus aureus [16] = experiment: Bactericidal against methicillin-resistant Staphylococcus aureus USA300 assessed as elimination of bacterial colonies at 16 ug/ml measured within 5 hrs by time kill assay relative to control; assay type: functional; conditions: dose 16 µg/ml
# Staphylococcus aureus [17] = experiment: Antibacterial activity against methicillin-resistant Staphylococcus aureus USA300 assessed as inhibition of bacterial growth incubated for 16 to 18 hrs by CLSI based two-fold serial dilution method; assay type: functional; conditions: time 16-18 hrs
# [18] = Cytotoxicity against human L02 cells assessed as inhibition of cell growth incubated for 24 hrs by MTT assay; assay type: toxicity, cell-based
structure (smiles),measurement,setting,value
Br.O=C(CCCCCCCCC[P+](c1ccc(F)cc1)(c1ccc(F)cc1)c1ccc(F)cc1)OC[C@H](NC(=O)C(Cl)Cl)[C@H](O)c1ccc([N+](=O)[O-])cc1,MIC,Staphylococcus aureus [1],2 µg/mL
same,Activity,Staphylococcus aureus [2],Active
same,MIC,Pseudomonas aeruginosa [3],> 64 µg/mL
same,Activity,Erythrocyte,Non-Toxic
same,Activity,Staphylococcus aureus [4],inactive
same,Activity,Cell membrane [5],Active
same,Activity,HEK-293T,Non-Toxic
same,Activity,Cell membrane [6],Dose-Dependent Effect
same,MIC,Acinetobacter baumannii [7],> 64 µg/mL
same,MIC,Staphylococcus aureus [8],1 µg/mL
same,Activity,[9],Non-Toxic
same,MIC,Pseudomonas aeruginosa [10],> 64 µg/mL
same,Activity,Staphylococcus aureus [11],inactive
same,Activity,Staphylococcus aureus [12],inactive
same,Activity,Cell membrane [13],Active
same,MIC,Staphylococcus aureus [14],2 µg/mL
same,MIC,Acinetobacter baumannii [15],> 64 µg/mL
same,Activity,Staphylococcus aureus [16],100%
same,MIC,Staphylococcus aureus [17],2 µg/mL
same,IC50 at 24 h,[18],> 64 µg/mL
